Measured values: patent US20250360162A1, “Naphthoic Acid-Derived Polymers as Antimicrobial Agents” (UNIVERSITY OF SOUTH CAROLINA, priority 2024, published 2025)

Legend:
[1] = test system: MDR-P. aeruginosa biofilm; assay: Biofilm eradication, quantification through bacterial cell viability; assay type: cell-based, Pseudomonas aeruginosa; settings: 16×MIC
Description: (§1) 18 mm glass coverslips were sterilized with flame after rinsing with ethanol. The bacterial biofilms were grown by following the previously published protocol. After the preparation of mid-log grown MDR-P. aeruginosa bacteria in TSB media, bacteria concentration was adjusted in NB with 1% (w/v) glucose and 1% (w/v) NaCl supplements to ˜10^5 CFU/mL. 2 mL of the diluted bacterial cell culture was used to fill the 6-well plate and 18 mm sterilized glass coverslips were added to each well. The plate was incubated at 37° C. for 72 h. After 72 h, 1×PBS (pH=7.4) was used to wash away unadhered planktonic bacteria. The carefully washed coverslips containing surface-attached biofilms were placed into a new 6-well sterile plate. Later, various concentration of 1-QAC-Hex (2 mL) was added into the wells and incubated for 24 h. Polymyxin-B was used as a control antibiotic. As a negative control, 2 mL of media was added without compound. The following three experiments were adjusted in the further steps as follows.
Once again, coverslips were washed with 1×PBS and transferred to another new, sterile plate. Afterward, 2 mL of trypsin-EDTA solution (diluted in saline at a 1:10 ratio) was added to each well and incubated for 15 min. Samples of 20 μL of each concentration were then 10-fold serially diluted in 1×PBS. […]

[2] = test system: MDR-P. aeruginosa biofilm; assay: Biofilm eradication, confocal fluorescence microscopy (SYTO 9/PI, Z-stack); assay type: cell-based, Pseudomonas aeruginosa
Description: as §1
Coverslips were washed with 1×PBS and left to dry for 2 min. MDR-P. aeruginosa biofilm was simultaneously stained with equal volumes of (5 μL) SYTO 9 (60 μM) and PI (15 μM) and was placed on the slide immediately followed by incubation in darkness for 15 min. The glass coverslips images on the slide were captured with a Zeiss LSM 410 Confocal Laser Scanning Microscope in 40× magnification. […]

MDR-P. aeruginosa = assay: Resistance development study, serial passaging at sub-MIC; assay type: cell-based, Pseudomonas aeruginosa; settings: 14 passages over 2 weeks
Description: (§2) The resistance development study was performed following the protocol published earlier. […] To compare the result, the last-resort gram-negative antibiotics, Polymyxin-B, and carbapenem type, Imipenem, were used in the study. According to the protocol elaborated for the MIC assay above, the MIC values of compounds and antibiotics were determined against corresponding bacteria overnight. The next day, a new MIC assay was performed where the bacterial suspension was prepared from the bacteria grown at the sub-MIC (MIC/2) of compound concentration of the first-day experiment. The next 14 continuous passages were repeated as described above. The resistance development was calculated as the fold increase of MIC by dividing MIC to the initial MIC values of every passage and then plotted against the passage number. These experiments were performed in triplicate.
(§3) MDR bacteria employ various strategies inherently or adaptively to build up resistance, which becomes a serious health concern. […] Bacteria were exposed to continuous serial passaging at the sub-MIC level over 2 weeks. Antibiotics imipenem and polymyxin-B were used as controls.

MDR-K. pneumoniae = assay: as above; assay type: cell-based, Klebsiella pneumoniae; settings: 14 passages over 2 weeks
Description: as §2, §3

[3] = test system: mouse red blood cells (RBCs)
Description: Hemolysis was given as HC50 where the concentration of a polymer causes 50% lysis of RBCs. […] RBC in PBS was used as the negative control to subtract any background signals.

Compound: polymyxin-B
- killing of viable bacteria within the biofilm, in words [1]: unable to kill the viable bacteria protected within the biofilm
- thickness of biofilm ([2]; 16×MIC, control 9.96 μm): 9.03 μm
- live/dead cells in biofilm after treatment ([2]; polymyxin-B 16×MIC, 3-QAC-Hex 16×MIC and 32×MIC): a large amount of live cells
- change in MIC after serial passaging (MDR-P. aeruginosa): 8 fold
- change in MIC after serial passaging (MDR-K. pneumoniae): 16 fold

Compound: C[C@@H](O)[C@H]1C(=O)N2C(C(=O)O)=C(SCCN=CN)C[C@H]12 [imipenem]
- change in MIC after serial passaging (MDR-P. aeruginosa): 16 fold
- change in MIC after serial passaging (MDR-K. pneumoniae): 16 fold

Compound: Triton-X 100
- lysis of RBCs [3]: 100%
